According to patent US8772500B2, “TRPV3 modulators” (AbbVie Inc., priority 2011, dated 2014):

What was measured:
[1] = target: T1, human TRPV3 (Homo sapiens, UniProt Q8NET8); experiment: In vitro antagonism of recombinant human TRPV3 activation (FLIPR Tetra calcium assay, 2-APB as agonist); format: cell-based; settings: HEK293 cells stably expressing human TRPV3; 2-APB 80 μM; range class; read-out: IC50 (reported range)
T1 construct: expressed in transfected cells
T1 sequence (Q8NET8 1-790): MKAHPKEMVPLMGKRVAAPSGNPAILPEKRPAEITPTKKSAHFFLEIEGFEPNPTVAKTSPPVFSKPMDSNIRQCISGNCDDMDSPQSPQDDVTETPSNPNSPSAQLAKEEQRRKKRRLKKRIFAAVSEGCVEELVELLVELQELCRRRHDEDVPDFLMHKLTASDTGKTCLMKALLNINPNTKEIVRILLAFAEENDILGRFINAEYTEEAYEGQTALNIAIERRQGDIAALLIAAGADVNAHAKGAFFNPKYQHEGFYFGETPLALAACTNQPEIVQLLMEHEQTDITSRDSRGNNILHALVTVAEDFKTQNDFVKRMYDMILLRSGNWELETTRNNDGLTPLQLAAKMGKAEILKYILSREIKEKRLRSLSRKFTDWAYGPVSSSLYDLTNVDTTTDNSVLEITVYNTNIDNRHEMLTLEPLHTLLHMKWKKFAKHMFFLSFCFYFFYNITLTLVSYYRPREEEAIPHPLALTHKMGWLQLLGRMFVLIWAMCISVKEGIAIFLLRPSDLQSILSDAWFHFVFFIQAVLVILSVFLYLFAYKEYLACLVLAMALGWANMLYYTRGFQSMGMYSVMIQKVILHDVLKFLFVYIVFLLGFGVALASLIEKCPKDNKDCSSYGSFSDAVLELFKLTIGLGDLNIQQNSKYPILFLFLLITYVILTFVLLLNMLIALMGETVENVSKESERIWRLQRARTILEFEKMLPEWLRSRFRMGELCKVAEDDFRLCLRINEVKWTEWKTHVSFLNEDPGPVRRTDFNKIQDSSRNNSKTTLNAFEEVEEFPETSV
Summary of the method: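 HEK293 cells stably expressing human TRPV3, loaded with Calcium-4 dye for 90-120 min; compound added 3 min before 2-APB at 80 μM (its EC80). Fluorescence (max minus min) over 10 min expressed as % of maximal 2-APB response without antagonist; IC50 mostly averaged from n≧2 runs.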

[2] = In vitro human microsomal stability assay; format: in vitro ADME; settings: human, 0.5 h, 0.5 μM, pH 7.4
Summary of the method: (§1)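 Metabolic stability was measured in liver microsomes from Sprague-Dawley rat or from human. Incubations ran at 37 °C with NADPH as cofactor, and NADPH was also added to the time-zero samples.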

[3] = In vitro rat microsomal stability assay; format: in vitro ADME, rat (Sprague-Dawley); settings: Sprague-Dawley, rat, 0.5 h, 0.5 μM, pH 7.4
Summary of the method: as §1

Row | Structure (SMILES) | IC50 [1] | HUMAN MICROSOMAL STABILITY (% REMAINING AFTER 30 MINUTES) [2] | RAT MICROSOMAL STABILITY (% REMAINING AFTER 30 MINUTES) [3]
1 | OC1CC(c2ccc(C(F)(F)F)cc2)([C@H](O)c2ccccn2)C1 (stereo partly drawn) [Example 166, 3-[(S)-hydroxy(pyridin-2-yl)methyl]-3-[4-(trifluoromethyl)phenyl]-cyclobutanol] | 5.1 to 20 µM | >85% | >85%
2 | OC(C1CCc2cccnc21)C1(c2ccc(Cl)c(Cl)c2)CCC1 (stereo not drawn) [Example 168, (syn)-[1-(3,4-dichlorophenyl)cyclobutyl][6,7-dihydro-5H-cyclopenta[b]-pyridin-7-yl]methanol] | 5.1 to 20 µM | 5.6% | <0.01%
3 | OC(C1CCCc2cccnc21)C1(c2ccc(F)c(F)c2)CCC1 (stereo not drawn) [Example 169, (anti)-[1-(3,4-difluorophenyl)cyclobutyl][5,6,7,8-tetrahydroquinolin-8-yl]-methanol] | 5.1 to 20 µM | <0.01% | <0.01%
4 | OC(C1CCCc2cccnc21)C1(c2ccc(OC(F)(F)F)cc2)CCC1 (stereo not drawn) [Example 177, (anti)-5,6,7,8-tetrahydroquinolin-8-yl{1-[4-(trifluoromethoxy)phenyl]-cyclobutyl}methanol] | 1.1 to 5 µM | 0.12% | <0.01%
5 | OC(C1CCCc2cccnc21)C1(c2cccc(C(F)(F)F)c2)CCC1 (stereo not drawn) [Example 179, (anti)-5,6,7,8-tetrahydroquinolin-8-yl{1-[3-(trifluoromethyl)phenyl]-cyclobutyl}methanol] | 1.1 to 5 µM | <0.01% | <0.01%
6 | OC(C1CCCc2cccnc21)C1(c2ccc(Cl)c(Cl)c2)CCC1 (stereo not drawn) [Example 181, (anti)-[1-(3,4-dichlorophenyl)cyclobutyl][5,6,7,8-tetrahydroquinolin-8-yl]-methanol] | 1.1 to 5 µM | <0.01% | <0.01%
7 | OC(C1CCCc2cccnc21)C1(c2ccc(C(F)(F)F)cc2)CCC1 (stereo not drawn) [Example 183, (anti)-5,6,7,8-tetrahydroquinolin-8-yl{1-[4-(trifluoromethyl)phenyl]-cyclobutyl}methanol] | 1.1 to 5 µM | <0.01% | <0.01%
8 | OC1CC(c2ccc(C(F)(F)F)cc2)(C(O)c2ccccn2)C1 [Example 200, cis-3-[(S)-hydroxy(pyridin-2-yl)methyl]-3-[4-(trifluoromethyl)phenyl]-cyclobutanol] | 5.1 to 20 µM | >85% | >85%
9 | OC1CC(c2ccc(C(F)(F)F)cc2)(C(O)c2ccccn2)C1 [Example 201, trans-3-[(S)-hydroxy(pyridin-2-yl)methyl]-3-[4-(trifluoromethyl)phenyl]-cyclobutanol] | 5.1 to 20 µM | 73% | >85%
10 | OC(c1ccccn1)C1(c2ccc(OC(F)(F)F)cc2)CC2(C1)OCCO2 (stereo not drawn) [Example 202, pyridin-2-yl{2-[4-(trifluoromethoxy)phenyl]-5,8-dioxaspiro[3.4]oct-2-yl}-methanol] | 5.1 to 20 µM | 73% | <0.01%
11 | CC1(O)CC(c2ccc(OC(F)(F)F)cc2)(C(O)c2ccccn2)C1 [Example 203, trans-3-[(S)-hydroxy(pyridin-2-yl)methyl]-1-methyl-3-[4-(trifluoromethoxy)-phenyl]cyclobutanol] | 5.1 to 20 µM | >85% | 74%
12 | NC1CCCC1C(O)C1(c2cccc(C(F)(F)F)c2)CCC1 (stereo not drawn) [Example 204, (2-aminocyclopentyl){1-[3-(trifluoromethyl)phenyl]cyclobutyl}methanol] | 1.1 to 5 µM | >85% | >85%
